How the values were obtained:
[1] = molecular target: T1, Serine/threonine-protein kinase D3 (Homo sapiens) (UniProt O94806); assay: Residual activity of PKCnu at 1 uM by microplate scintillation counting
T1 sequence (whole entry): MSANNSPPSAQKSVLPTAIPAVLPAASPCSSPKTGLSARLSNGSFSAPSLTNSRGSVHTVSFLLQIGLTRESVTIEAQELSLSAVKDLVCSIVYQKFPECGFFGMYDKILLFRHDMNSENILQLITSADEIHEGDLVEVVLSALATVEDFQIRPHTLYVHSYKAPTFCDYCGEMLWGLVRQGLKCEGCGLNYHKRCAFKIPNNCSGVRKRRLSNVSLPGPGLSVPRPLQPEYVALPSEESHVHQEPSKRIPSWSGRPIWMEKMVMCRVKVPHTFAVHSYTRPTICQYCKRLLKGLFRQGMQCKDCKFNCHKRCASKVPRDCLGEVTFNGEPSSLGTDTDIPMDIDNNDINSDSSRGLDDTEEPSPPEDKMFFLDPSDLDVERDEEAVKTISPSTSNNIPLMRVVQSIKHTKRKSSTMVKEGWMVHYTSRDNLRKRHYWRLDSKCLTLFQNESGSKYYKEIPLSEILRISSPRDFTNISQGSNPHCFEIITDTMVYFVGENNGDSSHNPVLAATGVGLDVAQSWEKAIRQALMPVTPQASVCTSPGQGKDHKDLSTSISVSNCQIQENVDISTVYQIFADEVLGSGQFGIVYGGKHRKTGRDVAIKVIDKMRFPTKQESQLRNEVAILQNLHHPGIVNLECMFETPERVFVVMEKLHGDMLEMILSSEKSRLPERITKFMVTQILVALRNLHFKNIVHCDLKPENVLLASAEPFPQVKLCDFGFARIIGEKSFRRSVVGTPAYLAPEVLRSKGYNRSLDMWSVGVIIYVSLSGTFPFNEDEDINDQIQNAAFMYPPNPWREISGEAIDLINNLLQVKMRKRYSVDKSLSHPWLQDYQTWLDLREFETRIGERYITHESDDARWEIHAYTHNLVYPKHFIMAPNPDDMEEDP

[2] = molecular target: T2, Ephrin type-A receptor 8 (Homo sapiens) (UniProt P29322); assay: Residual activity of EPHA8 at 0.1 uM by microplate scintillation counting
T2 sequence (whole entry): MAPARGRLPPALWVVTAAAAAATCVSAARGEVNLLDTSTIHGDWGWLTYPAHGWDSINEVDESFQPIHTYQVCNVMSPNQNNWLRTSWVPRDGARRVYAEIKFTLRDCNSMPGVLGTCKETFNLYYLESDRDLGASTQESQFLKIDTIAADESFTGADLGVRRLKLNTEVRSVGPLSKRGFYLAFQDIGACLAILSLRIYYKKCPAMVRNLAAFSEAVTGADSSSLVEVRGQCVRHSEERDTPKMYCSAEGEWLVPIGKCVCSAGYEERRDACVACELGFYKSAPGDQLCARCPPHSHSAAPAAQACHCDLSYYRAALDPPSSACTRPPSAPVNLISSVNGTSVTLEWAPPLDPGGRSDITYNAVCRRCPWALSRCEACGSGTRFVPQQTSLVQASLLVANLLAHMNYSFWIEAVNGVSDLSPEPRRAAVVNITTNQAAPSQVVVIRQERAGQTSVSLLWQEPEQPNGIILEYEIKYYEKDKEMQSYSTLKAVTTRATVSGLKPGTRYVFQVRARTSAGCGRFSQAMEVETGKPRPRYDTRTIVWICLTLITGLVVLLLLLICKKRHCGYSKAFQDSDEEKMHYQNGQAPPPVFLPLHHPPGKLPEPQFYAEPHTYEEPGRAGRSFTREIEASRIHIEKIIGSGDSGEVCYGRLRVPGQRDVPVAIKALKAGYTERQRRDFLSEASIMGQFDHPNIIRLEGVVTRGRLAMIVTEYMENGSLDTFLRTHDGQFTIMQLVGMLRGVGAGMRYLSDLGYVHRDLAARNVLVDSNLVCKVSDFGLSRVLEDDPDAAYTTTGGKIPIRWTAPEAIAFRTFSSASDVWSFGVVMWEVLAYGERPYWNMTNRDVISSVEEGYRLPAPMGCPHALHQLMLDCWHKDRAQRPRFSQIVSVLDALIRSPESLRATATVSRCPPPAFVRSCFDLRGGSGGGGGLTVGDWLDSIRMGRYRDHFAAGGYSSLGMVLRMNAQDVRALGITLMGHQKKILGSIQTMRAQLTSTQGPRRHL

[3] = molecular target: Death-associated protein kinase 3 (Homo sapiens) (UniProt O43293); assay: Residual activity of DAPK3 at 0.1 uM by microplate scintillation counting
[4] = molecular target: CDC42BPA protein (Homo sapiens) (UniProt B9EGA7); assay: Residual activity of CDC42BPA at 1 uM by microplate scintillation counting
[5] = molecular target: Fibroblast growth factor receptor 3 (Homo sapiens) (UniProt P22607); assay: Residual activity of FGFR3 at 0.1 uM by microplate scintillation counting
[6] = molecular target: Platelet-derived growth factor receptor alpha (Homo sapiens) (UniProt P16234); assay: Residual activity of PDGFRalpha at 1 uM by microplate scintillation counting
[7] = molecular target: Insulin receptor (Homo sapiens) (UniProt P06213); assay: Residual activity of INSR at 10 uM by microplate scintillation counting
[8] = molecular target: Receptor tyrosine-protein kinase erbB-4 (Homo sapiens) (UniProt Q15303); assay: Residual activity of ERBB4 at 1 uM by microplate scintillation counting
[9] = molecular target: Serine/threonine-protein kinase PLK1 (Homo sapiens) (UniProt P53350); assay: Residual activity of PLK1 at 10 uM by microplate scintillation counting
[10] = tested on: Epidermal growth factor receptor (Homo sapiens), P00533 [T790M]; assay: Residual activity of EGFR T790M mutant at 10 uM by microplate scintillation counting

Receptor tyrosine-protein kinase erbB-4 (Homo sapiens), sequence (Q15303 whole entry): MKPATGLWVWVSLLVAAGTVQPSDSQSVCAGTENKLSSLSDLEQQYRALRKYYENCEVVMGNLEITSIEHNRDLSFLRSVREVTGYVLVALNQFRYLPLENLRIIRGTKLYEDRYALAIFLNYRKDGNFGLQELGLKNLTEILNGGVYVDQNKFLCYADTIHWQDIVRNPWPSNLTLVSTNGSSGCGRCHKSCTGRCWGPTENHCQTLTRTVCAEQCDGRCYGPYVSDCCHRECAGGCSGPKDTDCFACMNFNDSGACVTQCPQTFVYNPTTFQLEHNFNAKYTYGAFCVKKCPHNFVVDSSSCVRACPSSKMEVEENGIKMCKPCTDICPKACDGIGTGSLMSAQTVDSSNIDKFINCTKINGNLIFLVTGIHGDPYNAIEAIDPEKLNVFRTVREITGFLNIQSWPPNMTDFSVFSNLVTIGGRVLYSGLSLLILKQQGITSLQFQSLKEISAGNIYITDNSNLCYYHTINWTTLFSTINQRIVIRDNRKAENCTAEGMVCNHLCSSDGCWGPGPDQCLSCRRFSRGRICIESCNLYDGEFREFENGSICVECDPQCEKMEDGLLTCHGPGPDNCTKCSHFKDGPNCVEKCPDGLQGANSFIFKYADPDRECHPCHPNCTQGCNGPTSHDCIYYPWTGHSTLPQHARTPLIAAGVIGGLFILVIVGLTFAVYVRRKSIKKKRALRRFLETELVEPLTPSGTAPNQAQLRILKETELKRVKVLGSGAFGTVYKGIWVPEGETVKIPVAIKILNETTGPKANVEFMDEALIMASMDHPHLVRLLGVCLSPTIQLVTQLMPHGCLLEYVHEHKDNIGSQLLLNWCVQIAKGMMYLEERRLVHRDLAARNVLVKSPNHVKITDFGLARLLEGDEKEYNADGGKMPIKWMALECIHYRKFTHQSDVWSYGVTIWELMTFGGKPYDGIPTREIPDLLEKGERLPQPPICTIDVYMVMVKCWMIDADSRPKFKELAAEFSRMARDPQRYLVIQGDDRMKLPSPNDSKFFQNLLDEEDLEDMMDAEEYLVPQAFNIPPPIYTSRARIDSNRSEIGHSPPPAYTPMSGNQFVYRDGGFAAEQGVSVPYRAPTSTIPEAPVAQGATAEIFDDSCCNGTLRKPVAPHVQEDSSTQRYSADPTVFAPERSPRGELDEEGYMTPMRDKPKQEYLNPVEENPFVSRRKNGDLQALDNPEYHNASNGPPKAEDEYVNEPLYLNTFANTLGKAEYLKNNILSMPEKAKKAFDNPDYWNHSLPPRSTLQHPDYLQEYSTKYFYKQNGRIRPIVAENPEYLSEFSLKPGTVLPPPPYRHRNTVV
Fibroblast growth factor receptor 3 (Homo sapiens), sequence (P22607 23-806 limits assumed): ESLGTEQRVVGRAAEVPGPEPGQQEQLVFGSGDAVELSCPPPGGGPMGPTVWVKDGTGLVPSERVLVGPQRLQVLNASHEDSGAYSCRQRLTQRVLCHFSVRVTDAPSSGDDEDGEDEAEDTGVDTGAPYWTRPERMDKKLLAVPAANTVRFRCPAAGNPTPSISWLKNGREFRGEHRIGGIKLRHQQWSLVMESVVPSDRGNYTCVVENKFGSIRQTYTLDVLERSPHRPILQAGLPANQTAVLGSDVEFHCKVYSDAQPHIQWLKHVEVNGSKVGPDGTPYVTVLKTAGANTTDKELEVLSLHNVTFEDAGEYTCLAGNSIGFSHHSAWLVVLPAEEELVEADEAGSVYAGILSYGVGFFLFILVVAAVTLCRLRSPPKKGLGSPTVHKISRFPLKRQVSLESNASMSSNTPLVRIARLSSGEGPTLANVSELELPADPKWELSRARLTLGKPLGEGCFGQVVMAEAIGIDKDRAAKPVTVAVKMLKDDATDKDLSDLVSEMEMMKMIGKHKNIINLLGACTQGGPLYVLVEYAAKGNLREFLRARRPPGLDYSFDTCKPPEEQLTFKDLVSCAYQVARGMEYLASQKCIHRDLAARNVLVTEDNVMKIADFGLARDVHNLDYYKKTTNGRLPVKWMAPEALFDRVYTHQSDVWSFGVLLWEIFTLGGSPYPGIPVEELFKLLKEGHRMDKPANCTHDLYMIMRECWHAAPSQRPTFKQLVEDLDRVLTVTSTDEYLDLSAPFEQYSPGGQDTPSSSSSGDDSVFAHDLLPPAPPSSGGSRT
Platelet-derived growth factor receptor alpha (Homo sapiens), sequence (P16234 whole entry): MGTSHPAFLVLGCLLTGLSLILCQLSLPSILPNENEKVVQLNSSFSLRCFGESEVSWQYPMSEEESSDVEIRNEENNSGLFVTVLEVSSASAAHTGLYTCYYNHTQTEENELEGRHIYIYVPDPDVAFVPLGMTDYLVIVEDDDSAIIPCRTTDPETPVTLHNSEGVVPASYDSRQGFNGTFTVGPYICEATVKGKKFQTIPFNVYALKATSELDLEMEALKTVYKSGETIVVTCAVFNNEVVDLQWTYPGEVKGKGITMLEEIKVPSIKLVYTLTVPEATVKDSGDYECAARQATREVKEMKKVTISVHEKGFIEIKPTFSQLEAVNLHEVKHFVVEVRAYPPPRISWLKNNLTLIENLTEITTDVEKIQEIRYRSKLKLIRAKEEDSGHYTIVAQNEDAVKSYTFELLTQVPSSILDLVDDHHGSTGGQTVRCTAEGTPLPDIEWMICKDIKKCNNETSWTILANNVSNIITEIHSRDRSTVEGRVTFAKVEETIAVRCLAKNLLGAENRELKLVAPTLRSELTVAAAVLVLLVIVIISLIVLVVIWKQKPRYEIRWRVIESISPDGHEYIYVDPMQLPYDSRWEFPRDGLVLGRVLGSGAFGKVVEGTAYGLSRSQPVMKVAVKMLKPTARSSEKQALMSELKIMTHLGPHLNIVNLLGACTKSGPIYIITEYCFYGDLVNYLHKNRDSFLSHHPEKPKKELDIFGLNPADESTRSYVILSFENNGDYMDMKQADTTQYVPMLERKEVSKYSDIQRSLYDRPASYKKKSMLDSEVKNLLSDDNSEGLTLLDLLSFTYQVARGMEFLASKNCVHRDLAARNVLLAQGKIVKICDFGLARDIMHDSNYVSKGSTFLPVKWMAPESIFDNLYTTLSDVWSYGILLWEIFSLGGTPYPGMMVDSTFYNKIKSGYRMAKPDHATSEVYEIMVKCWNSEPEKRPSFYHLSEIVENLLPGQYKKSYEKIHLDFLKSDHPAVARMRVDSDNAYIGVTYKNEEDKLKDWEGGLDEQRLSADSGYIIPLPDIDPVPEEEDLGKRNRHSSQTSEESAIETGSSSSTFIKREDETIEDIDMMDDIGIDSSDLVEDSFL
CDC42BPA protein (Homo sapiens), sequence (B9EGA7 as listed by the source): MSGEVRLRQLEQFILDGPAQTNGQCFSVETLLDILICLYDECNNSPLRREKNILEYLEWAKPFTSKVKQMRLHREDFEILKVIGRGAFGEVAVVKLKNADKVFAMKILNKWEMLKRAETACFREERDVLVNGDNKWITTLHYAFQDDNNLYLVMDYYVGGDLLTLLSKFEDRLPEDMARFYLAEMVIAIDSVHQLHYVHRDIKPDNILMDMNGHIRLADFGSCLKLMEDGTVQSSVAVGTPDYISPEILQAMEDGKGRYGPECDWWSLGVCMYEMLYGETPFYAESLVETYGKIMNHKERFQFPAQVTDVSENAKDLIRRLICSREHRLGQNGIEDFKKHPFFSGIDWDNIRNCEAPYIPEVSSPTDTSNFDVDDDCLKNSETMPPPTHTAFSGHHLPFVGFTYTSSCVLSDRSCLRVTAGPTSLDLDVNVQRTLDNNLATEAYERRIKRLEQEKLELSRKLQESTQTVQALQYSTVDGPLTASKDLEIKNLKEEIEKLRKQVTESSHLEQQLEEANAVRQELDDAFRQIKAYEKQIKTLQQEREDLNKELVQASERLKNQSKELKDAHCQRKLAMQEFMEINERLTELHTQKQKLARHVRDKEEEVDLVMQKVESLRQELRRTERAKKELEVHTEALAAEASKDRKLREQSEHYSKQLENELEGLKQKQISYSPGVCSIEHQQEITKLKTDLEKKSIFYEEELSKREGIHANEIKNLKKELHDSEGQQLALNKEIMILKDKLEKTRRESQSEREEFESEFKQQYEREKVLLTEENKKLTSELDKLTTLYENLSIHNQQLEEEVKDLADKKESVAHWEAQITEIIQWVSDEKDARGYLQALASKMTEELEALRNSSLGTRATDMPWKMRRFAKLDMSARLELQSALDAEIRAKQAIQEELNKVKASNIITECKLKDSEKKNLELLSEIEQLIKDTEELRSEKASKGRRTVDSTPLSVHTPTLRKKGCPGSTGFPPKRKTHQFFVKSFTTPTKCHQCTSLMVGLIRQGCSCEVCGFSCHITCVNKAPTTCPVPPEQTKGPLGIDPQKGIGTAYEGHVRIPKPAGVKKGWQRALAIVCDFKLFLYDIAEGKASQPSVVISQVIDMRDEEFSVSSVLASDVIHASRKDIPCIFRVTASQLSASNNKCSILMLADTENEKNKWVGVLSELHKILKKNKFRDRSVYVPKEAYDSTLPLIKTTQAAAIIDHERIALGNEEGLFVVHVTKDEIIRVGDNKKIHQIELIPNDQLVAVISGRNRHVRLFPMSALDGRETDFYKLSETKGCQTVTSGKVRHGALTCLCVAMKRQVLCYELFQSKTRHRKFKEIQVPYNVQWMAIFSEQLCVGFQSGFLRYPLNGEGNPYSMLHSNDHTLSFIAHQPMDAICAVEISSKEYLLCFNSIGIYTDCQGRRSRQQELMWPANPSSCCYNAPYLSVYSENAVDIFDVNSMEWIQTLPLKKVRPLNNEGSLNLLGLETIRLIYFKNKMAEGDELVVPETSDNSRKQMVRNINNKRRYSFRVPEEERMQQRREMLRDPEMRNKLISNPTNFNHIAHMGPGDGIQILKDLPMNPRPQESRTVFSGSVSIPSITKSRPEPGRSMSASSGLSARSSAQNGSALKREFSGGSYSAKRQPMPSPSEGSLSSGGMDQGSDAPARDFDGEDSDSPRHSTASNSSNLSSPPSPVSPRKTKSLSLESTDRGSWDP

| Compound | residual activity [1] | residual activity [2] | residual activity [3] | residual activity [4] | residual activity [5] | residual activity [6] | residual activity [7] | residual activity [8] | residual activity [9] | residual activity [10] |
| --- | --- | --- | --- | --- | --- | --- | --- | --- | --- | --- |
| COc1cc2c(Oc3ccc(-c4nc5ccccc5s4)cc3)ncnc2cc1OCCCN1CCN(C)CC1 | 83% | 109% | 75% | 117% | 95% | 57% | 33% | 99% | 134% | 88% |
| COc1cc2c(Oc3ccc(-c4nc5ccccc5s4)cc3F)ncnc2cc1OCCCN1CCN(C)CC1 | 88% | 101% | 74% | 89% | 100% | 73% | 29% | 103% | 100% | 41% |
| COc1cc2c(Oc3ccc(-c4nc5ccccc5s4)cc3)ncnc2cc1OCCCN1CCCC1 | 87% | 108% | 89% | 117% | 104% | 59% | 59% | 109% | 123% | 96% |

Reference: ChEMBL document CHEMBL1152560, “Substituted 2-arylbenzothiazoles as kinase inhibitors: hit-to-lead optimization” (Bioorg Med Chem, 2009)
